The assay relates to KRAS PDC tumor spheroids (HUVEC+MSC), viability. Nature of the assay: Anticancer human tumor 254851-301-R-J1-PDC patient-derived colon carcinoma cell line growth inhibition [KRAS2]. The note with it: for viability, T/C: stronger effect = lower value. Summed up:
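KRAS-mutant tumor cells were grown as spheroids with HUVEC endothelial cells and human MSCs as stroma. Targeted agents were tested alone and with KRAS pathway inhibitors. Doses started at or near clinical Cmax, or 10 microM, descending half-log.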

Setting [1] is: curve of first compound, second compound 0.1 µM.
Setting [2] is: curve of first compound, second compound 0.316 µM.
Where [3] appears, read: curve of first compound, second compound 1 µM.
[4] abbreviates: curve of first compound, second compound 3.16 µM.
Setting [5] is: curve of first compound, second compound 10 µM.
[6] abbreviates: second compound 0.1 µM, first compound 0.0316 µM.
Setting [7] is: second compound 0.1 µM, first compound 0.1 µM.
Where [8] appears, read: second compound 0.1 µM, first compound 0.316 µM.
Where [9] appears, read: second compound 0.1 µM, first compound 1 µM.
The mark [10] stands for this setting: second compound 0.1 µM, first compound 3.16 µM.
[11] abbreviates: second compound 0.1 µM, first compound 10 µM.
The mark [12] stands for this setting: second compound 0.316 µM, first compound 0.0316 µM.
Where [13] appears, read: second compound 0.316 µM, first compound 0.1 µM.
The mark [14] stands for this setting: second compound 0.316 µM, first compound 0.316 µM.
[15] abbreviates: second compound 0.316 µM, first compound 1 µM.
Setting [16] is: second compound 0.316 µM, first compound 3.16 µM.
Setting [17] is: second compound 0.316 µM, first compound 10 µM.
Setting [18] is: second compound 1 µM, first compound 0.0316 µM.
[19] abbreviates: second compound 1 µM, first compound 0.1 µM.
The mark [20] stands for this setting: second compound 1 µM, first compound 0.316 µM.
The mark [21] stands for this setting: second compound 1 µM, first compound 1 µM.
Setting [22] is: second compound 1 µM, first compound 3.16 µM.
Where [23] appears, read: second compound 1 µM, first compound 10 µM.
[24] abbreviates: second compound 3.16 µM, first compound 0.0316 µM.
The mark [25] stands for this setting: second compound 3.16 µM, first compound 0.1 µM.
Where [26] appears, read: second compound 3.16 µM, first compound 0.316 µM.
The mark [27] stands for this setting: second compound 3.16 µM, first compound 1 µM.
Where [28] appears, read: second compound 3.16 µM, first compound 3.16 µM.
Setting [29] is: second compound 3.16 µM, first compound 10 µM.
[30] abbreviates: second compound 10 µM, first compound 0.0316 µM.
The mark [31] stands for this setting: second compound 10 µM, first compound 0.1 µM.
Setting [32] is: second compound 10 µM, first compound 0.316 µM.
The mark [33] stands for this setting: second compound 10 µM, first compound 1 µM.
The mark [34] stands for this setting: second compound 10 µM, first compound 3.16 µM.
The mark [35] stands for this setting: second compound 10 µM, first compound 10 µM.

Where “and” joins values, the source holds several entries; their conditions need not be identical. Identical values can stand only once.
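Note: spheroids exposed to compounds for seven days before readout.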
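Throughout, for viability, T/C: 100% = DMSO vehicle control luminescence of the spheroids.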

The IC50 is the midpoint of a concentration-inhibition curve. The term viability, T/C denotes the ratio of treated to control. Turning to `Cn1nccc1Nc1nccc(-c2cc3c(s2)C(C)(C)N(CCN2CCOCC2)C3=O)n1` + COc1cc2nc(C)nc(NC(C)c3cc(N)cc(C(F)(F)F)c3)c2cc1OC1CCOC1, the IC50 reads like this: under setting [1], 1970 nM; under setting [2], 1810 nM; under setting [3], 1530 nM; under setting [4], 564 nM; under setting [5], 445 nM. For the same molecule, the viability, T/C by setting is: under setting [6], 101%; under setting [7], 97%; under setting [8], 82.6%; under setting [9], 71.5%; under setting [10], 35.9%; under setting [11], 3.63%. The viability, T/C was 98.4% under setting [12]; 83.2% under setting [13]; 77.2% under setting [14]; 74.3% under setting [15]; 29.1% under setting [16]; 3.95% under setting [17]. The viability, T/C by setting is: under setting [18], 85.5%; under setting [19], 86.7%; under setting [20], 72.7%; under setting [21], 70%; under setting [22], 17.6%; under setting [23], 4.11%. Besides, the viability, T/C was 87.8% under setting [24]; 80.2% under setting [25]; 66.5% under setting [26]; 35% under setting [27]; 4.08% under setting [28]; 2.21% under setting [29]. Besides, the viability, T/C was 72.2% under setting [30]; 71.2% under setting [31]; 56.9% under setting [32]; 31.1% under setting [33]; 2.79% under setting [34]; 1.54% under setting [35].

Regarding `CC(C)NCC(C(=O)N1CCN(c2ncnc3c2C(C)CC3O)CC1)c1ccc(Cl)cc1` (stereo not drawn), the viability, T/C reads like this: (compound 0.0316 µM) 100% and 101% (3×) and 105%; (compound 0.1 µM) 103% [middle of 5 runs]; (compound 0.316 µM) 99.5% [middle of 5 runs]; (compound 1 µM) 104% [middle of 5 runs]; (compound 10 µM) 98.9% [middle of 5 runs]. For the same molecule, where the note is “curve of compound”, the IC50 was over 10000 nM.

For `CC(C)NCC(C(=O)N1CCN(c2ncnc3c2C(C)CC3O)CC1)c1ccc(Cl)cc1` (stereo not drawn) + CC1OCC2(CCN(c3cnc(Sc4ccnc(N)c4Cl)c(N)n3)CC2)C1N, the IC50 was over 10000 nM under setting [1]; over 10000 nM under setting [2]; over 10000 nM under setting [3]; over 10000 nM under setting [4]; over 10000 nM under setting [5]. In addition, the viability, T/C reads like this: under setting [6], 104%; under setting [7], 97.1%; under setting [8], 103%; under setting [9], 93.2%; under setting [10], 102%; under setting [11], 85.3%. For the same molecule, the viability, T/C under setting [12] was 93%; the viability, T/C under setting [13] is 86.6%; the viability, T/C under setting [14] was 75.4%; the viability, T/C under setting [15] is 79.6%; the viability, T/C under setting [16] is 79.5%; the viability, T/C under setting [17] was 88.4%. The viability, T/C was 72.4% under setting [18]; 72.4% under setting [19]; 83.1% under setting [20]; 75.6% under setting [21]; 69.6% under setting [22]; 68.5% under setting [23]. For the same molecule, the viability, T/C by setting is: under setting [24], 58.4%; under setting [25], 68.9%; under setting [26], 64.9%; under setting [27], 66.4%; under setting [28], 67.4%; under setting [29], 70.8%. For the same molecule, the viability, T/C runs as follows: under setting [30], 58.6%; under setting [31], 64.5%; under setting [32], 65.7%; under setting [33], 60.9%; under setting [34], 55.9%; under setting [35], 58.4%.

As for `CC1(C)CCC(CN2CCN(c3ccc(C(=O)NS(=O)(=O)c4ccc(NCC5CCOCC5)c([N+](=O)[O-])c4)c(Oc4cnc5[nH]ccc5c4)c3)CC2)=C(c2ccc(Cl)cc2)C1` + C=CC(=O)N1CCN(c2nc(=O)n(-c3c(C)ccnc3C(C)C)c3nc(-c4c(O)cccc4F)c(F)cc23)C(C)C1, the IC50 runs as follows: under setting [1], over 10000 nM; under setting [2], over 10000 nM; under setting [3], over 10000 nM; under setting [4], over 10000 nM; under setting [5], over 10000 nM. Also, the viability, T/C was 106% under setting [6]; 112% under setting [7]; 98.2% under setting [8]; 95.4% under setting [9]; 95.3% under setting [10]; 73.6% under setting [11]. The viability, T/C by setting is: under setting [12], 106%; under setting [13], 115%; under setting [14], 91.2%; under setting [15], 95.1%; under setting [16], 91.3%; under setting [17], 91.6%. For the same molecule, the viability, T/C reads like this: under setting [18], 114%; under setting [19], 115%; under setting [20], 105%; under setting [21], 104%; under setting [22], 93.8%; under setting [23], 74.3%. Besides, the viability, T/C is, setting by setting: under setting [24], 102%; under setting [25], 119%; under setting [26], 102%; under setting [27], 103%; under setting [28], 92.7%; under setting [29], 84.9%. Also, the viability, T/C reads like this: under setting [30], 109%; under setting [31], 109%; under setting [32], 97.8%; under setting [33], 107%; under setting [34], 93.8%; under setting [35], 83.7%.

As for `C=CC(=O)N1CCN(c2nc(OCC3CCCN3C)nc3c2CCN(c2cccc4cccc(C)c24)C3)CC1CC#N` (stereo not drawn), the viability, T/C (compound 0.0316 µM) was 98.7% [middle of 17 runs] and the viability, T/C (compound 0.1 µM) is 97% [middle of 17 runs]. Besides, the concentration for half-maximal inhibition (IC50) reads like this: (compound alone, run of 07/12/2021) over 3160 nM; (compound alone, run of 07/19/2021) over 3160 nM; (compound alone, run of 07/26/2021) over 3160 nM.

As to `O=C(c1cc(Cc2n[nH]c(=O)c3ccccc23)ccc1F)N1CCN(C(=O)C2CC2)CC1`, the viability, T/C is, setting by setting: (compound 0.0316 µM) 107% [middle of 5 runs]; (compound 0.1 µM) 108% [middle of 5 runs]; (compound 0.316 µM) 99.5% [middle of 5 runs]; (compound 1 µM) 99.5% [middle of 5 runs]; (compound 3.16 µM) 97.4% [middle of 5 runs]; (compound 10 µM) 99.1% [middle of 5 runs]. Moreover, for the setting “curve of compound”, the IC50 is over 10000 nM.

For `Cn1nccc1Nc1nccc(-c2cc3c(s2)C(C)(C)N(CCN2CCOCC2)C3=O)n1` + CC1OCC2(CCN(c3cnc(Sc4ccnc(N)c4Cl)c(N)n3)CC2)C1N, the IC50 under setting [1] came out at 1720 nM; the half-inhibitory concentration (IC50) under setting [2] was determined as 1810 nM; the IC50 under setting [3] stood at 1290 nM; the half-inhibitory concentration (IC50) under setting [4] came out at 469 nM; the IC50 under setting [5] came out at 422 nM. Besides, the viability, T/C by setting is: under setting [6], 97.6%; under setting [7], 98.1%; under setting [8], 100%; under setting [9], 86.9%; under setting [10], 8.68%; under setting [11], 4.09%. Besides, the viability, T/C runs as follows: under setting [12], 83.8%; under setting [13], 86.8%; under setting [14], 85.3%; under setting [15], 69.8%; under setting [16], 31.1%; under setting [17], 4.06%. Besides, the viability, T/C is 77.4% under setting [18]; 83.7% under setting [19]; 81.8% under setting [20]; 61.1% under setting [21]; 11.1% under setting [22]; 3.68% under setting [23]. In addition, the viability, T/C was 68% under setting [24]; 77.5% under setting [25]; 75.8% under setting [26]; 4.42% under setting [27]; 2.57% under setting [28]; 1.97% under setting [29]. The viability, T/C is 64% under setting [30]; 79.5% under setting [31]; 63% under setting [32]; 10.3% under setting [33]; 3.18% under setting [34]; 2.52% under setting [35].
